Measurements: patent US20250109127A1, “METHODS OF USE OF PHENOXYPROPYLAMINE COMPOUNDS TO TREAT DEPRESSION” (Minerva Neurosciences, Inc., priority 2013, published 2025)
Values joined by “and” are separate entries in the source; they are usually repeats but may differ in a detail not shown here. Identical values can stand only once.

Tested on: dopamine release in the rat prefrontal cortex
Assay: Microdialysis: dopamine release in prefrontal cortex after I.P. administration
Type: in vivo
Settings: for DOPAMINE in dialysate, MEAN / DOPAMINE in dialysate, individual animals: Citalopram 10 mg/kg I.P.
Protocol: The aim of the study was to evaluate, using microdialysis, the effects of an intraperitoneal (I.P.) administration in rats of three different doses of SON-117 on dopamine and its metabolites, serotonin and its metabolite (5-HIAA), and norepinephrine levels in prefrontal cortex.
Thirty-two adult male Wistar rats were used for the whole study (4 groups of eight animals planned for the study, Table 1).
Surgery was performed on rats weighing about 300 g at the beginning of the experiments. Rats were anaesthetized with Ketamine (50 mg/kg) & Xylazine (15 mg/kg) by intramuscular administration. The animals were placed in a stereotaxic apparatus in the flat-skull position at a constant setting of −3.3 mm between ear bars and the incisor bar. The animals were treated with a local anesthesic (xylocaine 1%, Astra Zeneca) and an analgesic (Temgesic, from Schering Plough, 0.05 mg/kg, s.c.). A rostrocaudal midline incision was made with a lancet to expose the dorsal skull surface. The “stereotaxic zero” was defined by the Bregma in accordance with Paxinos and Watson's atlas (1986). A hole was drilled in the skull with a drill and the meninges were pierced with a sterile needle to implant a CMA12 guide cannula which later received the dialysis probe.
Coordinates used for implanting guide cannula in prefrontal cortex from Bregma were anteroposterior 3.7 mm, mediolateral 0.8 mm, and dorsoventral −2 mm (top of the probe was at −5 mm). The guide cannula was fixed to the skull with two stainless steel screws (1.88 mm outside diameter) anchored. An application of dental cement was added. A plastic collar allowed each animal to be tethered to a Swivel assembly of the CMA 120 awake animal system. Following surgery, rats were kept in individual cages and allowed to recover for a minimum of 3-5 days before the experimentation. The rats were handled and put in plastic bowl for 10 min at least every day to habituate the animals to their new environment for the dialysis. An I.P. administration with saline was also performed every day.
Dialysis probes (CMA12/3 mm, membrane, 20 kD cut-off, Carnegie Medicine, Stockholm, Sweden), were carefully washed before inserting into the guide cannula. The wash was performed with the artificial cerebrospinal fluid (aCSF) medium (NaCl 147 mM, KCl 2.7 mM, CaCl2 1.2 mM, MgCl2 0.85 mM) at room temperature. The dialysis system was then equilibrated at 20° C. at a perfusion rate of 1 μl/min with a Carnegie pump (CMA100). All catheters (FEP tubing, internal volume of 1.2 μl/10 cm, and tubing adaptors) used for microdialysis were treated in the same conditions.
The probes duly prepared were inserted into the guide cannula and the CMA120 Swivel assembly secured to the animal using a plastic collar. Flow through the dialysis probe with aCSF was maintained at a rate of 1 μl/min during the whole experimentation. The first four fractions (corresponding to 2 hours) were discarded to avoid the effects of parenchymal disturbance and to ensure that an approximate steady-state level was reached. Fractions were then collected over a period of 8.5 h during which time the animals remained quiet. The dialysates were automatically collected with an autosampler (microfraction collector CMA 140, Carnegie Medicin) and stored at −80° C. until analysis. […] Perfusion was then maintained for 7 hours with aCSF. The dialysates (30 μl) were collected into 300 μl vials, transferred into dry ice and then kept frozen (−80° C.) until analysis. Frozen samples were shipped to a partner for analysis. At the end of the microdialysis study, a PBS with colored ink was perfused through the probe in order to visualize the dialyzed area.
Catecholamine assay: Concentrations of dopamine, DOPAC, HVA, 5-HIAA, 5-HT, and norepinephrin were determined for each sample by HPLC coupled with electrochemical detection.

CN(C)CCCC1(c2ccc(F)cc2)OCc2cc(C#N)ccc21 (centres unmarked) [Citalopram, citalopram, reference compound]
DOPAMINE in dialysate, MEAN (T0-T30 min): 125.10 % of respective basal | DOPAMINE in dialysate, MEAN (T30-T1 h): 100.99 % of respective basal | DOPAMINE in dialysate, individual animals (T30-T1 h): 140.37 % of respective basal and 66.54 % of respective basal and 36.31 % of respective basal and 85.24 % of respective basal and 123.31 % of respective basal and 48.94 % of respective basal and 154.56 % of respective basal and 96.98 % of respective basal | DOPAMINE in dialysate, MEAN (T1 h 30-T2 h): 186.16 % of respective basal | DOPAMINE in dialysate, individual animals (T1 h 30-T2 h): 866.34 % of respective basal and 87.95 % of respective basal and 112.22 % of respective basal and 92.11 % of respective basal and 107.27 % of respective basal and 89.55 % of respective basal and 53.23 % of respective basal and 51.41 % of respective basal | DOPAMINE in dialysate, MEAN (T1 h-T1 h 30): 170.05 % of respective basal | DOPAMINE in dialysate, individual animals (T1 h-T1 h 30): 573.74 % of respective basal and 97.67 % of respective basal and 64.11 % of respective basal and 123.43 % of respective basal and 30.69 % of respective basal and 110.39 % of respective basal and 169.03 % of respective basal and 176.68 % of respective basal | DOPAMINE in dialysate, MEAN (T2 h 30-T3 h): 108.77 % of respective basal | DOPAMINE in dialysate, individual animals (T2 h 30-T3 h): 225.14 % of respective basal and 50.88 % of respective basal and 108.16 % of respective basal and 122.69 % of respective basal and 62.34 % of respective basal and 107.84 % of respective basal and 55.41 % of respective basal and 165.66 % of respective basal | DOPAMINE in dialysate, MEAN (T2 h-T2 h 30): 255.07 % of respective basal | DOPAMINE in dialysate, individual animals (T2 h-T2 h 30): 1031.09 % of respective basal and 91.06 % of respective basal and 160.05 % of respective basal and 100.78 % of respective basal and 166.56 % of respective basal and 132.77 % of respective basal and 334.66 % of respective basal and 26.69 % of respective basal | DOPAMINE in dialysate, MEAN (T3 h 30-T4 h): 115.67 % of respective basal | DOPAMINE in dialysate, individual animals (T3 h 30-T4 h): 243.96 % of respective basal and 23.86 % of respective basal and 113.64 % of respective basal and 73.20 % of respective basal and 174.87 % of respective basal and 59.22 % of respective basal and 97.27 % of respective basal and 119.98 % of respective basal | DOPAMINE in dialysate, MEAN (T3 h-T3 h 30): 151.97 % of respective basal | DOPAMINE in dialysate, individual animals (T3 h-T3 h 30): 49.37 % of respective basal and 157.89 % of respective basal and 78.55 % of respective basal and 231.36 % of respective basal and 125.19 % of respective basal and 190.71 % of respective basal and 225.63 % of respective basal | DOPAMINE in dialysate, MEAN (T4 h 30-T5 h): 103.71 % of respective basal | DOPAMINE in dialysate, individual animals (T4 h 30-T5 h): 201.72 % of respective basal and 24.62 % of respective basal and 85.39 % of respective basal and 56.71 % of respective basal and 60.52 % of respective basal and 195.94 % of respective basal and 92.15 % of respective basal | DOPAMINE in dialysate, MEAN (T4 h-T4 h 30): 197.23 % of respective basal | DOPAMINE in dialysate, individual animals (T4 h-T4 h 30): 337.02 % of respective basal and 36.95 % of respective basal and 127.24 % of respective basal and 110.17 % of respective basal and 45.45 % of respective basal and 94.94 % of respective basal and 255.00 % of respective basal and 192.48 % of respective basal | DOPAMINE in dialysate, MEAN (T5 h 30-T6 h): 143.61 % of respective basal | DOPAMINE in dialysate, individual animals (T5 h 30-T6 h): 63.71 % of respective basal and 183.35 % of respective basal and 112.87 % of respective basal and 229.69 % of respective basal and 57.13 % of respective basal and 228.31 % of respective basal and 145.07 % of respective basal | DOPAMINE in dialysate, MEAN (T5 h-T5 h 30): 151.58 % of respective basal | DOPAMINE in dialysate, individual animals (T5 h-T5 h 30): 209.25 % of respective basal and 54.45 % of respective basal and 141.19 % of respective basal and 97.47 % of respective basal and 150.97 % of respective basal and 246.92 % of respective basal | DOPAMINE in dialysate, MEAN (T6 h 30-T7 h): 152.65 % of respective basal | DOPAMINE in dialysate, individual animals (T6 h 30-T7 h): 300.59 % of respective basal and 88.72 % of respective basal and 128.46 % of respective basal and 71.16 % of respective basal and 147.69 % of respective basal and 77.59 % of respective basal and 325.54 % of respective basal and 82.54 % of respective basal | DOPAMINE in dialysate, MEAN (T6 h-T6 h 30): 90.10 % of respective basal | DOPAMINE in dialysate, individual animals (T6 h-T6 h 30): 138.93 % of respective basal and 48.75 % of respective basal and 107.97 % of respective basal and 57.49 % of respective basal and 83.90 % of respective basal and 102.96 % of respective basal and 83.47 % of respective basal and 66.13 % of respective basal | DOPAMINE in dialysate, MEAN (T-30 min-T0 (pre-dose)): 107.61 % of respective basal | DOPAMINE in dialysate, MEAN (T-1 h 30-T-1 h (pre-dose)): 77.78 % of respective basal | DOPAMINE in dialysate, individual animals (T-1 h 30-T-1 h (pre-dose)): 71.31 % of respective basal | DOPAMINE in dialysate, MEAN (T-1 h-T-30 min (pre-dose)): 98.79 % of respective basal | dopamine levels, increase (not significant) (citalopram 10 mg/kg I.P., from T1.5 h and 2.5 h): 255%
